According to US4233309A, “Novel 1-substituted-3-acylpyrrole derivatives, platelet aggregation inhibitors containing them, as active ingredients, and processes for production of said derivatives” (Teijin Limited, priority 1977, dated 1980):
Read-outs that look alike come from different tables or passages of the source.

Legend:
[1] = system: platelet aggregation (platelet-rich plasmas (PRP) of guinea pigs); assay: Activity of inhibiting platelet aggregation in vitro, guinea pig PRP, sodium arachidonate as aggregating agent (Table 1); type: cell-based, Hartley-strain male guinea pigs; settings: Cavia porcellus, sodium arachidonate 0.03 mM final, 37° C., final concentration, read-out: IC50 (minimum concentration of drug which showed a percent inhibition of more than 50%)
Protocol: Some 1-substituted-3-acylpyrrole derivatives and other drugs were tested for platelet aggregation inhibiting activities in vitro using platelet-rich plasmas (PRP) of man and guinea pigs. The results are shown as minimum concentration of drugs which inhibit more than 50% of platelet aggregation induced by several aggregating agents.
In experiments with PRP of guinea pigs, sodium arachidonate (final concentration 0.03 mM) was used as an aggregating agent. In experiments with human PRP, sodium arachidonate (final concentration 0.1 mM), collagan suspension (final concentration 10 μg/ml), epinephrine solution (final concentration 20 μg/ml; for secondary aggregation), an epinephrine solution (final concentration 2 μg/ml; for primary aggregation) and ADP (final concentration 5 μM) were used as aggregating agents.
In an experiment with guinea pig PRP, citrated blood (containing 0.38% sodium citrate as a final concentration) was withdrawn by cardiac puncture from Hartley-strain male guinea pigs having a body weight of 350 to 600 g. The citrated blood was centrifuged at 1,000 rpm for 10 minutes at room temperature, and the supernatant platelet suspension (PRP) was separated.
The PRP was stored at room temperature, and used as soon as possible. Those which had been stored for more than 4 hours after preparation were not used.
For each test, a drug is dissolved in dimethylsulfoxide to a concentration of 10 mg/ml, and diluted with physiological saline to form 1 ml each of solutions having a concentration of 2500 μg/ml, 1000 μg/ml, 750 μg/ml, 500 μg/ml, 250 μg/ml and 100 μg/ml. A compound having a free carboxylic acid as a residue such as indomethacine and Ibprofen was dissolved in 0.1 M NaHCO3 to form a sodium salt solution having a concentration of 10 mg/ml. Then, the solution was diluted with physiological saline in the same way as above to form a test drug solution.
Arachidonic acid (99% pure, a product of Sigma Co., Ltd.) was dissolved in 0.1 M NaHCO3, and a 3.3 mM solution of sodium arachidonate was prepared. The solution was diluted with physiological saline to a concentration of 1 mM and used in the experiments. The 3.3 mM solution was stored in a refrigerator as a stock solution, and the 1 mM solution was newly prepared from the stock solution every time it was used.
Physiological saline (50 μl) and 50 μl of the aggregating agent solution were added to 400 μl of PRP which had been pre-warmed and stirred at 37° C. in a quvett set in a holder of an aggregometer. Platelet aggregation was thus initiated, and the change of light transmittance through a stirred platelet suspension was recorded for 3 minutes by a recorder joined to the aggregometer. An increase in transmittance after 3 minutes (T0) was used as a parameter of the rate of platelet aggregation in control experiments.
To 400 μl of PRP in a quvett was added 50 μl of a test drug solution. The mixture was pre-incubated and stirred for 2 minutes at 37° C. Then 50 μl of the aggregating agent was added to drug containing PRP and again aggregation responses were recorded as increases in light transmittance after 3 minutes (T1) in the same way as in (1) above. Percent inhibition was calculated from the formula [formula]
For the above in vitro test for the inhibition of platelet aggregation, reference may be had to H. M. Davis, J. Phyllis, K. Paul and W. Terry: Thromb. Res. 11, 217-226 (1977) and R. E. Anderson and J. G. Foulks: Thromb. Haemos. 36, 343-359 (1976).

[2] = system: biosynthesis of prostaglandins (microsomes of the seminal vesicle of bovine); assay: Inhibitory effect on prostaglandin biosynthesis in vitro (Table 3); type: biochemical; settings: 4 μg/ml sodium arachidonate, bioassay on rat fundus stomach strips
Protocol: Sprangue-Dawley rats (male, 180-200 g) were fasted overnight, and killed by blow on the head. The stomach was isolated, and fundus stomach strips were prepared. The smooth muscle strips were perfused with Krebs-Hensleit solution (gassed with 95% O2 +5% CO2 gas) of 37° C. at a rate of […]. The Krebs-Hensleit solution contained 0.1 μg/ml of atropine, 0.1 μg/ml of phenoxybenzamine, 3 μg/ml of propranolol, 0.1 μg/ml of tripelennamine, and 0.2 μg/ml of methylsergide to prevent the effect of smooth muscle contracting substances, and 1 μg/ml of indomethacine to inhibit the biosynthesis of prostaglandin by the smooth muscles. Then, 150 μl of a reaction solution containing biologically synthesized prostaglandin was added to the perfusion solution, and the amount of the biologically synthesized prostaglandin was measured from the contraction of the smooth muscles. The contraction of the smooth muscles was recorded on a recorder using an isotonic transducer.
The reaction solution containing biologically synthesized prostaglandin was prepared in the following manner.
To 0.4 mg/ml of microsomes of the seminal vesicle of bovine were added 5 mM of L-tryptophan, 0.025 μM of bovine hemoglobin and 3 mμ of glutathione as cofactors. The mixture was incubated together with each of the test compounds shown in Table 4 at 37° C. for 2 minutes, and immediately then, 4 μg/ml of sodium arachidonate was added. The mixture was further incubated at 37° C. for 10 minutes, and immediately then, the prostaglandin activity of the reaction solution was measured by bioassay.
The microsomes of the seminal vesicle of bovine had been prepared by suspending microsomes of the seminal vesicle of bovine (a product of Miles Laboratories, Inc.) in a 50 mM Tris.HCl buffer (pH 7.4) using a glass homogenizer, and stored in ice water prior to use.
ID50 denotes the concentration of each test compound required to inhibit the biosynthesis of prostaglandins by 50%.

[3] = system: platelet aggregation (guinea pig PRP, extra vivo); assay: Inhibitory effect of compounds on platelet aggregation in extra vivo (Table 4); parameters: species or system Hartley-strain guinea pigs; settings: Cavia porcellus, 100 mg/kg, route PS [sic], 1 h
Protocol: The effect of the compounds shown in Table 4 on platelet aggregation was assessed using guinea pig in extra vivo.
Each of the test compounds was dissolved in propylene glycol so that its concentration became 100 mg/ml (dosage corresponded to 100 mg/kg) and 30 mg/ml (dosage corresponded to 30 mg/kg). The drug solution was administered either orally or subcutaneously to Hartley-strain guinea pigs (3 per group) having a body weight of 300 to 350 g. As a control, propylene glycol was administered. One hour after the administration, citrated blood was taken out by cardiac puncture, and centrifuged to obtain PRP (see Example 67).
In the case of oral administration, the animals had been fasted overnight.
Into a quvett set in a holder of an aggregometer and prewarmed at 37° C. with stirring, was put 450 μl of the above PRP, and then 50 μl of an aggregating agent was added. The aggregation curve was recorded for an additional 3 minutes, and an increase in light transmittance through PRP after 3 minutes (TB) was recorded (see Example 67). As a control, an increase of transmittance of PRP taken from a guinea pig group administered with propylene glycol alone (TA) was recorded in the same way above. The percent inhibitions were calculated in accordance with the following equation. [formula]
As the aggregating agent, sodium arachidonate (a final concentraton of 0.03 mM) and a collagen suspension (a final concentration of 5 μg/ml) were used.
The percent inhibitions in the above table are averages of three guinea pigs. For details of the above extra vivo test about inhibition of platelet aggregation, the literature references described in Example 67 may be referred to.

carrageenan edema = assay: Antiinflammatory activity (carrageenan edema of rat paw, Table 5); type: in vivo, Sprangue-Dawley (SD) male rats; settings: 100 mg/kg orally, 3 h after 1% carrageenan
Protocol: Sprangue-Dawley (SD) male rats with a body weight of 160 to 180 g, four in each group, were used. The volume of the left leg was measured, and each of the test compounds shown in Table 5 (100 mg/kg dissolved in polyethylene glycol so as to provide a volume of 2 ml/kg) was orally administered. One hour later, 0.1 ml of 1% carrageenan (dissolved in physiological saline) as an inflammation-inducing substance was subcutaneously injected to the paw of the left hind leg. A control group was orally administered with 2 ml/kg of polyethylene glycol. As a positive control, 25 mg/kg of Ibprofen was similarly administered. Three hours after the injection of 1% carrageenan, the volume of the left leg was measured, and the ratio of edema was calculated from the volume before the administration of the carrageenan. The percent inhibition of edema in comparison with the control group was determined.

CC(=O)OCC(C)n1c(C)cc(C(=O)c2ccccc2)c1C (centres unmarked) [Compound 306, 2-(3-benzoyl-2,5-dimethylpyrrol-1-yl)-2-methylethyl acetate]
IC50 [1]: 7.5 µg/mL
ID50 (concentration required to inhibit the biosynthesis of prostaglandins by 50%) [2]: 5.6 µg/mL
inhibition at 100 mg/kg ([3]; collagen 5 μg/ml, read-out: Percent inhibition of platelet aggregation, collagen): 34%
inhibition at 100 mg/kg ([3]; sodium arachidonate 0.03 mM, read-out: Percent inhibition of platelet aggregation, sodium arachidonate): 62%
Percent inhibition of edema (carrageenan edema): 16%
